Assay results published in US20080045560A1, “Pyrrolidine and related derivatives useful as PR modulators” (Wyeth, priority 2006, published 2008).
pIC50: −log10 of the molar value.

Assays:
[1] = system: progesterone receptor (alkaline phosphatase activity in T47D cells); test: Effects of progestins and antiprogestins on alkaline phosphatase activity in T47D cells (antagonist mode); format: cell-based; conditions: Homo sapiens, in the presence of 1 nM progesterone, 24 h; for inhibition at 0.003 µM: at 3 nM
Method: (1) Effects of Progestins and Antiprogestins on Alkaline Phosphatase Activity in T47D Cells.
• PURPOSE: To identify progestins or antiprogestins by determining a compound's effect on alkaline phosphatase activity in T47D cells.
Culture medium: • DMEM:F12 (1:1) (GIBCO, BRL) supplemented with 5% (v/v) charcoal stripped fetal bovine serum (not heat-inactivated), 100 U/mL penicillin, 100 μg/mL streptomycin, and 2 mM the GlutaMax™ reagent (GIBCO, BRL).
Alkaline phosphatase assay buffer: • I. 0.1M Tris-HCl, pH 9.8, containing 0.2% the Triton® X-100 reagent • II. 0.1M Tris-HCl, pH 9.8, containing 4 mM p-nitrophenyl phosphate (Sigma).
Frozen T47D cells were thawed in a 37° C. water bath and diluted to 280,000 cells/mL in culture medium. To each well in a 96-well plate (Falcon, Becton Dickinson Labware), 180 μL of diluted cell suspension was added.
Twenty μL of reference or test compounds diluted in the culture medium was then added to each well. When testing for progestin antagonist activity, reference antiprogestins or test compounds were added in the presence of 1 nM progesterone. The cells were incubated at 37° C. in a 5% CO2/humidified atmosphere for 24 h. NOTE: For high throughput screening, one concentration of each compound was tested at 0.3 μg/mL. Based on an average molecular weight of 300 g/mol for the compounds in the library, the concentration was approximately 1 μM. Subsequently, active compounds were tested in dose response assays to determine EC50 and IC50.
At the end of treatment, the medium was removed from the plate. Fifty μL of assay buffer I was added to each well. The plates were shaken in a titer plate shaker for 15 min. Then 150 μL of assay buffer II was added to each well. Optical density measurements were taken at 5 min intervals for 30 min at a test wavelength of 405 nm.
For reference and test compounds, a dose response curve was generated for dose (X-axis) vs. the rate of enzyme reaction (slope) (Y-axis). Square root-transformed data was used for analysis of variance and nonlinear dose response curve fitting for both agonist and antagonist modes. Huber weighting was used to down-weight the effects of outliers. EC50 or IC50 values were calculated from the retransformed values. JMP software (SAS Institute, Inc.) was used for both one-way analysis of variance and non-linear dose response analysis in both single dose and dose response studies.
Progesterone and trimegestone were reference progestins and RU486 was the reference antiprogestin. All reference compounds were run in full dose response curves and the EC50 and IC50 values were calculated.

SMILES | melting point | pIC50 [1] | also measured
CC1(C)C=CC(=O)N1c1nc(-c2ccc(C#N)cc2)cs1 [Example 7, 4-[2-(2,2-Dimethyl-5-oxo-2,5-dihydro-1H-pyrrol-1-yl)-1,3-thiazol-4-yl]benzonitrile] | – | – | inhibition at 0.003 µM [1]: 60%
CC1(C)CCC(=O)N1c1nc(-c2ccc(C#N)cc2)cs1 [Example 8, 4-[2-(2,2-Dimethyl-5-oxopyrrolidin-1-yl)-1,3-thiazol-4-yl]benzonitrile] | – | – | inhibition at 0.003 µM [1]: 50%
O=C1C2CCC(CC2)N1c1nc(-c2ccc(Br)cc2)cs1 [Example 10, 2-[4-(4-bromophenyl)-1,3-thiazol-2-yl]-2-azabicyclo[2.2.2]octan-3-one] | – | 7.35 | –
N#Cc1ccc(-c2csc(N3C(=O)C4CCC3CC4)n2)cc1 [Example 11, 4-[2-(3-oxo-2-azabicyclo[2.2.2]oct-2-yl)-1,3-thiazol-4-yl]benzonitrile] | – | 8.32 | –

More lines, main results first:

melting point | pIC50 [1] | SMILES | also measured
197 to 199 °C | – | C[C@@H]1COC(=O)N1c1nc(-c2ccc(Br)cc2)cs1 [Example 1, (4R)-3-[4-(4-Bromophenyl)-1,3-thiazol-2-yl]-4-methyl-1,3-oxazolidin-2-one] | –
145 to 147 °C | – | CCC1(CC)COC(=O)N1c1nc(-c2ccc(C#N)cc2)cs1 [Example 2, 4-[2-(4,4-Diethyl-2-oxo-1,3-oxazolidin-3-yl)-1,3-thiazol-4-yl]benzonitrile] | –
181 to 183 °C | – | CC1(C)COC(=O)N1c1nc(-c2cccc(C#N)c2)cs1 [Example 3, 3-[2-(4,4-dimethyl-2-oxo-1,3-oxazolidin-3-yl)-1,3-thiazol-4-yl]benzonitrile] | –
– | 7.50 | CC1(C)CCC(=O)N1c1nc(-c2ccc(C#N)cc2)c(F)s1 [Example 9, 4-[2-(2,2-Dimethyl-5-oxopyrrolidin-1-yl)-5-fluoro-1,3-thiazol-4-yl]benzonitrile] | –
